# Test results: paper PMC9862096, “Interaction of a Homologous Series of Amphiphiles with P-glycoprotein in a Membrane Environment—Contributions of Polar and Non-Polar Interactions” (Pharmaceutics, 2023)
# Experiment: Calculation of local concentrations of the amphiphiles in membrane and aqueous medium from partition coefficients
# Settings: for fraction associated with the lipid bilayer of the native membrane: 0.107 mg of protein per mL; for concentration in the aqueous phase: total amphiphile 50 µM, partition to native membranes; for fraction associated with the membranes: IAAP displacement conditions, 1 mg of protein per mL; for concentration associated with the membrane: total concentration 60 µM; for fraction of amphiphile in the membrane associated with proteins: low amphiphile concentrations, away from saturation
# Description: A major limitation of the models used to analyze the effects on P–gp’s ATPase activity and IAAP displacement is the use of global concentrations. Interaction of the amphiphiles with P–gp is considered to occur from the membrane and, therefore, what is relevant is the amphiphile concentration in the lipid bilayer where P–gp is embedded. The importance of using local concentration in the analysis of the interaction of small molecules with membrane proteins has been pointed out before (e.g., [33, 35, 37, 46, 84, 85]), but, unfortunately, it is still overlooked. The local concentrations may be calculated from the partition coefficient of the amphiphiles between the aqueous media and the model membranes with the relevant lipid composition. […] An intermediate affinity is obtained for NBD–LysoMPE in spite of its longer aliphatic chain. This is due to its bigger and much polar (charged) head group. From the partition coefficients one may calculate the local concentration of amphiphile in the membrane for a given total concentration of amphiphile. At the concentration of native membranes used in the ATPase assays (0.107 mg of protein per mL), 2% of the NBD–C4 is associated with the lipid bilayer of the native membrane (see Supplementary Information, Section S10 for details). As expected, for the more lipophilic amphiphiles, the fraction associated with the lipid bilayer increases, being 53% for NBD–C8 and 13% for NBD–LysoMPE. In the IAAP displacement experiments, the amount of native membranes is almost 10 times higher (1 mg of protein per mL), leading to 18% of NBD–C4 associated with the membranes, and 91% and 58% for the case of NBD–C8 and NBD–LysoMPE, respectively.
# S10 – Calculation of the local concentration of the amphiphiles in the membrane and in the […]
# The concentration of phospholipids (PL) in a solution containing native membranes is calculated from the concentration of protein and the ratio of PLs to prot eins (0.57 g PL/g P , average PL molar mass of 750 g/mol). The volume of the lipid bilayer (VLb) is then calculated considering a density of 1 g/cm3 for the phospholipids.
# Typical values for the conditions of the ATPase activity assays are given be low:
# The volume occupied by proteins in the membrane (VP) was calculated considering a density of 1.2 g/cm3 (being 8.9 × 10‐5 × VT, and the total volume of native membranes is 1.5 × 10‐4 × VT.
# The IAAP displacement assay was performed with a protein concentration of 1 g/L, leading to proportionally higher volumes of the lipid bilayer and proteins.
# Knowing the partition coefficients of the ligand one may calculate the fractions in each medium: […]
# The fraction of amphiphile in the membrane (lipid bilayer plus membrane proteins), is given by:
# MLbP PLKVKV KVWL→→ →b WP WM+ fffVK VK VVK VK VLLL WL=+= =bPP PM , WP L++ ++→→ →→b WP WLbP PWP Lb WPbP P where WMK → is the partition coeff icient obtained experimentally between the aqueous media P and the native membranes.
# The above equations are only valid if the system is away from saturation (at low concentrations of amphiphiles relative to the binding agents). At relatively high amphiphile concentrations, the proteins may become saturated, leading to a decrease in the apparent partition coefficient and to an increase in the relative fraction of amphiphile associated with the lipid bilayer.
# From the above equations one may calculate directly the concentration of amphiphile in each […]
# To evaluate if the aqueous medium is saturated, this concentration sho uld be co mpared with the ligand critical aggregation concentration. P ossible perturbation of the lipid bilayer is best evaluated from the mo la r ratio of lipids to ligand bound (PL:L)
SMILES,fraction associated with the lipid bilayer of the native membrane (ATPase assay conditions) [%],concentration in the aqueous phase (ATPase assay conditions) [µM],concentration in the aqueous phase (IAAP assay conditions) [µM],fraction associated with the membranes [%],concentration associated with the membrane (ATPase assay conditions) [µM],concentration associated with the membrane (IAAP assay conditions (membrane 10-fold higher)) [µM],fraction of amphiphile in the membrane associated with proteins [%]
CCCCCCCCCCCCCC(=O)OCC(O)COP(=O)(O)OCCNc1ccc([N+](=O)[O-])c2nonc12 (centres unmarked) [NBD–LysoMPE],13,12,2,58,–,–,–
CCCCNc1ccc([N+](=O)[O-])c2nonc12 [NBD–C4],2,–,–,18,1.4,11,72
CCCCCCCCNc1ccc([N+](=O)[O-])c2nonc12 [NBD–C8],53,21,4,91,–,–,15
